Data: ChEMBL document CHEMBL4837181 (Eur J Med Chem, 2020)
One block for each molecule: values may come before it.

Legend:
[1] = target: OAT3 (Homo sapiens, UniProt Q8TCC7); test: Inhibition of OAT3 (unknown origin) expressed in HEK293 cells; format: cell-based
[2] = Chemical stability of compound in 0.1 N aqueous HCl buffer assessed as compound remaining at pH 1 at 5 uM measured after 24 hrs by LC-MS/MS analysis; format: physicochemical; settings: pH 1, 24 h
[3] = Drug metabolism in cynomolgus monkey assessed as indoximod formation of by measuring indoximod Tmax at 75 to 675 mg/kg, po administered as single dose; format: ADME, organism-based, Macaca fascicularis; settings: in vivo, dose 75-675 mg/kg
[4] = target: Cytochrome P450 2C9 (Homo sapiens, UniProt P11712); test: Inhibition of CYP2C9 in human hepatocytes; format: ADME, cell-based, Hepatocyte
[5] = Stability in rat plasma assessed as parent compound remaining measured after 2 hrs by LC-MS/MS analysis; format: ADME, cell-free; settings: read-out: Stabilty
[6] = target: T1, Solute carrier organic anion transporter family member 1B3 (Homo sapiens, UniProt Q9NPD5); test: Inhibition of OATP1B3 (unknown origin) expressed in HEK293 cells; format: cell-based
T1 sequence (Q9NPD5 whole entry): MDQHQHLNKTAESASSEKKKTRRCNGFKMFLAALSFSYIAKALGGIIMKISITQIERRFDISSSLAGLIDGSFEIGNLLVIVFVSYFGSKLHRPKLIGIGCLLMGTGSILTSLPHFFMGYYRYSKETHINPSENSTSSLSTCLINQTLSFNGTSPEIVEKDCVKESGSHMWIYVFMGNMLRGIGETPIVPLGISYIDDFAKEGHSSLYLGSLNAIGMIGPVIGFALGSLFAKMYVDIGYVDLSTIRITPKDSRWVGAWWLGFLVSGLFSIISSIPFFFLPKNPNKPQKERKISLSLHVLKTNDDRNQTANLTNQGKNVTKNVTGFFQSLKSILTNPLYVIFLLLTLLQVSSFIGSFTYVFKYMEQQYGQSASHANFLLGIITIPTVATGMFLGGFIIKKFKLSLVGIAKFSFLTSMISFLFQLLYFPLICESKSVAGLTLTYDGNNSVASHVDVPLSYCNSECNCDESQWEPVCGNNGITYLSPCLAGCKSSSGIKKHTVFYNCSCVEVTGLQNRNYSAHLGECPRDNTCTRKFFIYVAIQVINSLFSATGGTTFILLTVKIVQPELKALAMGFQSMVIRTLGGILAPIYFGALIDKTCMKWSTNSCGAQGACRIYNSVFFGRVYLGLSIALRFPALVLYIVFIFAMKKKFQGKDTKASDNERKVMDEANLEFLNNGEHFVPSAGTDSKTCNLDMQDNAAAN

[7] = target: T2, Solute carrier family 22 member 6 (Homo sapiens, UniProt Q4U2R8); test: Inhibition of OAT1 (unknown origin) expressed in HEK293 cells; format: cell-based
T2 sequence (Q4U2R8 whole entry): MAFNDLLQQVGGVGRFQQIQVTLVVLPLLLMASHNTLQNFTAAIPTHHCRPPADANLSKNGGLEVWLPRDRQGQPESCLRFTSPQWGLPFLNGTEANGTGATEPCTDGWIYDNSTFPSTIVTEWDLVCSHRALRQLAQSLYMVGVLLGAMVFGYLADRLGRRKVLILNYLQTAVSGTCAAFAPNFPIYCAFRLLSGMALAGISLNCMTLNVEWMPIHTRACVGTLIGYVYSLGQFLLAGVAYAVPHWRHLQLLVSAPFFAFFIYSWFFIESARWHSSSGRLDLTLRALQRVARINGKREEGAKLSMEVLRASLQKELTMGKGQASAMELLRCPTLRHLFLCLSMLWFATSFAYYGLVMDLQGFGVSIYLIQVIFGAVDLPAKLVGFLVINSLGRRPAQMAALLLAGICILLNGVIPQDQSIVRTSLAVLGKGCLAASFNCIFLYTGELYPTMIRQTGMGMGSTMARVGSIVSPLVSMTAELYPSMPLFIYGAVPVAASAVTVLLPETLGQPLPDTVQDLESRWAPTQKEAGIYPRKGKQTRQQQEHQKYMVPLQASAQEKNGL

[8] = Protein binding in human plasma; format: ADME, cell-free; settings: read-out: PPB
[9] = Chemical stability of compound in PBS buffer assessed as compound remaining at pH 7.4 at 5 uM measured after 24 hrs by LC-MS/MS analysis; format: physicochemical; settings: read-out: Stabilty
[10] = Toxicity in monkey assessed as change in behavioral parameter; design: species or system Macaca mulatta; settings: rhesus monkey, in vivo
[11] = Cmax in female rat at 180 mg/kg, po BID measured on day 28; format: ADME, organism-based; design: route oral, dose 180 mg/kg; settings: in vivo
[12] = target: T3, Cytochrome P450 1A2 (Homo sapiens, UniProt P05177); test: Induction of CYP1A2 in human hepatocytes; format: ADME, cell-based, Hepatocyte
T3 sequence (P05177 whole entry): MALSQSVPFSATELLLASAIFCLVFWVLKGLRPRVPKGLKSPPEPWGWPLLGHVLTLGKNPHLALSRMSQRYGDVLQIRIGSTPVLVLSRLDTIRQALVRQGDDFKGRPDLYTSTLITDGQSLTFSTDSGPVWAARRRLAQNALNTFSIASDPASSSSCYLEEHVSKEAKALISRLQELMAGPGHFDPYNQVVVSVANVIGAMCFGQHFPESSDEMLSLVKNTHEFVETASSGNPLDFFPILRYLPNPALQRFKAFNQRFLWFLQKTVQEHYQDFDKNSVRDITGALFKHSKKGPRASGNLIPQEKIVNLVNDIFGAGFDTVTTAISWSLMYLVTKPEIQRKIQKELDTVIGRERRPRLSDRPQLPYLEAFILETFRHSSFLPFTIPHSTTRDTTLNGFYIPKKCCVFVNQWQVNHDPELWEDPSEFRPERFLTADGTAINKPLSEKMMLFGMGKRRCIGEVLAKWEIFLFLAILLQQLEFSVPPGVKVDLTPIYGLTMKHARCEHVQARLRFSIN

[13] = Solubility of the compound in buffer at pH 1.58 to 6.7; format: physicochemical
[14] = Stimulation of proliferation of CD8 positive T cells (unknown origin); format: functional, tissue-based; settings: CD8-positive T cell
[15] = Volume of distribution in female cynomolgus monkey at 15 mg/kg, iv measured on day 1; format: ADME, organism-based, Macaca fascicularis; settings: in vivo
[16] = Clearance in female cynomolgus monkey at 75 mg/kg, po measured on day 1; format: ADME, organism-based, Macaca fascicularis; settings: in vivo
[17] = AUC (0 to 24 hrs) at steady state in mouse at 62 mg/kg administered bid; format: ADME, organism-based; design: time < 24 hr, dose 62 mg/kg; settings: in vivo
[18] = Apparent oral clearance in male cynomolgus monkey at 75 mg/kg, po measured on day 1; format: ADME, organism-based, Macaca fascicularis; settings: in vivo
[19] = Half life in male cynomolgus monkey at 225 mg/kg, po measured on day 1; format: ADME, organism-based, Macaca fascicularis; settings: in vivo
[20] = Dose normalized Cmax in rat at 50 mg/kg, po measured upto 72 hrs by LC-MS/MS analysis; format: ADME, organism-based; settings: in vivo
[21] = AUC (0 to 12 hrs) in human up to 1200 mg administered bid; format: ADME; design: time < 12 hr, dose <=1200
[22] = Half life in rat; format: ADME; settings: in vivo
[23] = Half life in female cynomolgus monkey at 75 mg/kg, po measured on day 1; format: ADME, organism-based, Macaca fascicularis; settings: in vivo
[24] = Solubility of compound at pH 7.4; format: physicochemical; settings: buffer
[25] = AUC (0 to 24 hrs) in female cynomolgus monkey at 15 mg/kg, iv measured on day 1; format: ADME, organism-based, Macaca fascicularis; design: time < 24 hr, route intravenous, dose 15 mg/kg; settings: in vivo

Sequence of Cytochrome P450 2C9 (P11712 whole entry): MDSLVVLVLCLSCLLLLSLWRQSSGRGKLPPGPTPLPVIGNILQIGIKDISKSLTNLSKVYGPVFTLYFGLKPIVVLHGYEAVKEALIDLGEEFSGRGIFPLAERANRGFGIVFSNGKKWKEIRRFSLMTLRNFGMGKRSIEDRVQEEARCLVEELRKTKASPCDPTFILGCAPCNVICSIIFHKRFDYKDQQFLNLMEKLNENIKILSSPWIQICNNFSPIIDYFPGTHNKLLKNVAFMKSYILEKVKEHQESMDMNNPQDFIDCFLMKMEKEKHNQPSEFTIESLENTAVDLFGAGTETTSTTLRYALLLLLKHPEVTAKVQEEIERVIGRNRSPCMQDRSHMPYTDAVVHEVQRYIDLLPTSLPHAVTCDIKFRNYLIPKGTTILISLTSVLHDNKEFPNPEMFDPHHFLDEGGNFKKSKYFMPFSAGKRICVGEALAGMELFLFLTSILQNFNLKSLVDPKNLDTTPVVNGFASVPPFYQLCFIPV
Sequence of OAT3 (Q8TCC7 whole entry, looked up): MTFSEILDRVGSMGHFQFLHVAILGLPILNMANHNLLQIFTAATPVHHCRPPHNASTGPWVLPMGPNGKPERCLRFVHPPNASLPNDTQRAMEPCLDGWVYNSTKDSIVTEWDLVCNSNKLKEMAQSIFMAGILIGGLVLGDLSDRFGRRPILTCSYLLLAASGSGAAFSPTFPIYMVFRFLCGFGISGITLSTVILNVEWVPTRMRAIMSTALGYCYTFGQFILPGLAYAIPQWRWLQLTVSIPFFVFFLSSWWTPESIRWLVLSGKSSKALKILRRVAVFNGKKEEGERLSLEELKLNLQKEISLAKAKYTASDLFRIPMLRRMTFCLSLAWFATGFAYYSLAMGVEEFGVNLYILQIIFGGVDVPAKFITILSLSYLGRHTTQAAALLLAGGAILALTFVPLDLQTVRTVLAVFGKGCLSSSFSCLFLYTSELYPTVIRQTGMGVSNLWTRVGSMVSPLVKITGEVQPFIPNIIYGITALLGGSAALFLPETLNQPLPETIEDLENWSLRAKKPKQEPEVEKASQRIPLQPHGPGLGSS

SMILES: CCOC(=O)[C@@H](Cc1cn(C)c2ccccc12)NC(=O)[C@@H](N)CC(C)C.Cl
IC50 [1]: > 50 µM
Stabilty [2]: 87%
Tmax [3]: 1 h
IC50 [4]: > 50 µM
remaining at 2 h [5]: 0%
IC50 [6]: > 50 µM
IC50 [7]: > 50 µM
fraction unbound [8]: 0.5
remaining at 24 h, 5 µM [9]: 48%
Activity [10]: Non-Toxic
Cmax [11]: 170 µM
Activity [12]: Not Active
solubility [13]: 16.3 mg/mL

Vd [15]: 0.9 L/kg
CL/F [16]: 25.6 mL/min/kg
AUC at 24 h [17]: > 170 µM·h
CL/F [18]: 16.2 mL/min/kg
half-life [19]: 2.9 h
Cmax/dose [20]: 27 µM
AUC at 12 h [21]: 83 µM·h
half-life [22]: 30 h
half-life [23]: 1.8 h
solubility [24]: < 2 mg/mL
AUC(0-t) at 24 h [25]: 70.6 µM·h
SMILES: Cn1cc(C[C@@H](N)C(=O)O)c2ccccc21 [INDOXIMOD]
EC50 [14]: ≥ 30 µM
